Data reported in PubChem BioAssay AID1259407 (Chemical Carcinogenesis Research Information System (CCRIS), 2018).
Calls of active or inactive are those of the source. The rule behind the calls is not given here.

Tested on: CCRIS mutagenicity, Ames/micronucleus/aberration tests
Assay: CCRIS mutagenicity studies
[1] = Test System: AMES SALMONELLA TYPHIMURIUM, Strain/Indicator: TA98, Metabolic Activation: NONE, Method: STANDARD PLATE
[2] = Test System: AMES SALMONELLA TYPHIMURIUM, Strain/Indicator: TA98, Metabolic Activation: RAT, LIVER, S-9, AROCLOR 1254, Method: STANDARD PLATE
[3] = Test System: AMES SALMONELLA TYPHIMURIUM, Strain/Indicator: TA100, Metabolic Activation: NONE, Method: STANDARD PLATE
[4] = Test System: AMES SALMONELLA TYPHIMURIUM, Strain/Indicator: TA98, Metabolic Activation: HAMSTER, LIVER, S-9, AROCLOR 1254 (10%), Method: PREINCUBATION
[5] = Test System: AMES SALMONELLA TYPHIMURIUM, Strain/Indicator: TA98, Metabolic Activation: NONE, Method: PREINCUBATION
[6] = Test System: AMES SALMONELLA TYPHIMURIUM, Strain/Indicator: TA98, Metabolic Activation: RAT, LIVER, S-9, AROCLOR 1254 (10%), Method: PREINCUBATION
[7] = Test System: AMES SALMONELLA TYPHIMURIUM, Strain/Indicator: TA100, Metabolic Activation: HAMSTER, LIVER, S-9, AROCLOR 1254 (10%), Method: PREINCUBATION
[8] = Test System: AMES SALMONELLA TYPHIMURIUM, Strain/Indicator: TA100, Metabolic Activation: NONE, Method: PREINCUBATION
[9] = Test System: AMES SALMONELLA TYPHIMURIUM, Strain/Indicator: TA100, Metabolic Activation: RAT, LIVER, S-9, AROCLOR 1254 (10%), Method: PREINCUBATION
[10] = Test System: AMES SALMONELLA TYPHIMURIUM, Strain/Indicator: TA1535, Metabolic Activation: HAMSTER, LIVER, S-9, AROCLOR 1254 (10%), Method: PREINCUBATION
[11] = Test System: AMES SALMONELLA TYPHIMURIUM, Strain/Indicator: TA1535, Metabolic Activation: NONE, Method: PREINCUBATION
[12] = Test System: AMES SALMONELLA TYPHIMURIUM, Strain/Indicator: TA1535, Metabolic Activation: RAT, LIVER, S-9, AROCLOR 1254 (10%), Method: PREINCUBATION
[13] = Test System: AMES SALMONELLA TYPHIMURIUM, Strain/Indicator: TA1537, Metabolic Activation: HAMSTER, LIVER, S-9, AROCLOR 1254 (10%), Method: PREINCUBATION
[14] = Test System: AMES SALMONELLA TYPHIMURIUM, Strain/Indicator: TA1537, Metabolic Activation: NONE, Method: PREINCUBATION
[15] = Test System: AMES SALMONELLA TYPHIMURIUM, Strain/Indicator: TA1537, Metabolic Activation: RAT, LIVER, S-9, AROCLOR 1254 (10%), Method: PREINCUBATION

## CSC[C@H](NC(=O)COc1cccc2cnccc12)C(=O)N[C@@H](Cc1ccccc1)[C@H](O)C(=O)N1CSC[C@H]1C(=O)NC(C)(C)C
Test System: AMES SALMONELLA TYPHIMURIUM, Strain/Indicator: TA98, Metabolic Activation: HAMSTER, LIVER, S-9, AROCLOR 1254, Method: STANDARD PLATE
  mutagenic call: inactive; negative
[1]
  mutagenic call: inactive; negative
[2]
  mutagenic call: inactive; negative
Test System: AMES SALMONELLA TYPHIMURIUM, Strain/Indicator: TA100, Metabolic Activation: HAMSTER, LIVER, S-9, AROCLOR 1254, Method: STANDARD PLATE
  mutagenic call: inactive; negative
[3]
  mutagenic call: inactive; negative
Test System: AMES SALMONELLA TYPHIMURIUM, Strain/Indicator: TA100, Metabolic Activation: RAT, LIVER, S-9, AROCLOR 1254, Method: STANDARD PLATE
  mutagenic call: inactive; negative
Test System: AMES SALMONELLA TYPHIMURIUM, Strain/Indicator: TA1535, Metabolic Activation: HAMSTER, LIVER, S-9, AROCLOR 1254, Method: STANDARD PLATE
  mutagenic call: inactive; negative
Test System: AMES SALMONELLA TYPHIMURIUM, Strain/Indicator: TA1535, Metabolic Activation: NONE, Method: STANDARD PLATE
  mutagenic call: inactive; negative
Test System: AMES SALMONELLA TYPHIMURIUM, Strain/Indicator: TA1535, Metabolic Activation: RAT, LIVER, S-9, AROCLOR 1254, Method: STANDARD PLATE
  mutagenic call: inactive; negative
Test System: AMES SALMONELLA TYPHIMURIUM, Strain/Indicator: TA1537, Metabolic Activation: HAMSTER, LIVER, S-9, AROCLOR 1254, Method: STANDARD PLATE
  mutagenic call: inactive; negative
Test System: AMES SALMONELLA TYPHIMURIUM, Strain/Indicator: TA1537, Metabolic Activation: NONE, Method: STANDARD PLATE
  mutagenic call: inactive; negative
Test System: AMES SALMONELLA TYPHIMURIUM, Strain/Indicator: TA1537, Metabolic Activation: RAT, LIVER, S-9, AROCLOR 1254, Method: STANDARD PLATE
  mutagenic call: inactive; negative
Test System: AMES SALMONELLA TYPHIMURIUM, Strain/Indicator: TA1538, Metabolic Activation: HAMSTER, LIVER, S-9, AROCLOR 1254, Method: STANDARD PLATE
  mutagenic call: inactive; negative
Test System: AMES SALMONELLA TYPHIMURIUM, Strain/Indicator: TA1538, Metabolic Activation: NONE, Method: STANDARD PLATE
  mutagenic call: inactive; negative
Test System: AMES SALMONELLA TYPHIMURIUM, Strain/Indicator: TA1538, Metabolic Activation: RAT, LIVER, S-9, AROCLOR 1254, Method: STANDARD PLATE
  mutagenic call: inactive; negative
Test System: Mouse lymphoma, Strain/Indicator: L5178Y (tk+/tk-), Metabolic Activation: None, Method: Suspension/plate
  mutagenic call: inactive; negative
Test System: Mouse lymphoma, Strain/Indicator: L5178Y (tk+/tk-), Metabolic Activation: Rat, Liver, S-9, Aroclor 1254, Method: Suspension/plate
  mutagenic call: active; equivocal (previous evaluation positive)

## NC(=O)c1cnccn1
[4]
  mutagenic call: inactive; negative
[5]
  mutagenic call: inactive; negative
[6]
  mutagenic call: inactive; negative
[7]
  mutagenic call: inactive; negative
[8]
  mutagenic call: inactive; negative
[9]
  mutagenic call: inactive; negative
[10]
  mutagenic call: inactive; negative
[11]
  mutagenic call: inactive; negative
[12]
  mutagenic call: inactive; negative
[13]
  mutagenic call: inactive; negative
[14]
  mutagenic call: inactive; negative
[15]
  mutagenic call: inactive; negative

## CC(=O)OC/C=C(C)/C=C/C=C(C)/C=C/C1=C(C)CCCC1(C)C
Test System: AMES SALMONELLA TYPHIMURIUM, Strain/Indicator: TA97A, Metabolic Activation: NONE, Method: PREINCUBATION
  mutagenic call: inactive; negative
Test System: AMES SALMONELLA TYPHIMURIUM, Strain/Indicator: TA97A, Metabolic Activation: RAT, LIVER, S-9, AROCLOR 1254, Method: PREINCUBATION
  mutagenic call: inactive; negative
Test System: AMES SALMONELLA TYPHIMURIUM, Strain/Indicator: TA102, Metabolic Activation: NONE, Method: PREINCUBATION
  mutagenic call: inactive; negative
Test System: AMES SALMONELLA TYPHIMURIUM, Strain/Indicator: TA102, Metabolic Activation: RAT, LIVER, S-9, AROCLOR 1254, Method: PREINCUBATION
  mutagenic call: inactive; negative

## Cc1cc2ccccc2c2ccc3c(c12)[C@H](O)[C@@H](O)[C@H]1O[C@@H]31
[8]
  mutagenic call: inactive; negative

## O=P(OC(CCl)CCl)(OC(CCl)CCl)OC(CCl)CCl
Test System: AMES SALMONELLA TYPHIMURIUM, Strain/Indicator: TA97, Metabolic Activation: HAMSTER, LIVER, S-9, AROCLOR 1254 (10%), Method: PREINCUBATION
  mutagenic call: active; positive
Test System: AMES SALMONELLA TYPHIMURIUM, Strain/Indicator: TA97, Metabolic Activation: NONE, Method: PREINCUBATION
  mutagenic call: inactive; negative
Test System: AMES SALMONELLA TYPHIMURIUM, Strain/Indicator: TA97, Metabolic Activation: RAT, LIVER, S-9, AROCLOR 1254 (10%), Method: PREINCUBATION
  mutagenic call: inactive; negative
[4]
  mutagenic call: inactive; negative
[5]
  mutagenic call: inactive; negative
[6]
  mutagenic call: inactive; negative
[7]
  mutagenic call: active; positive
[8]
  mutagenic call: inactive; negative
Test System: AMES SALMONELLA TYPHIMURIUM, Strain/Indicator: TA100, Metabolic Activation: RAT, LIVER, HEPATOCYTES, PHENOBARBITAL, Method: PREINCUBATION
  mutagenic call: inactive; negative
Test System: AMES SALMONELLA TYPHIMURIUM, Strain/Indicator: TA100, Metabolic Activation: RAT, LIVER, HEPATOCYTES, Method: PREINCUBATION
  mutagenic call: active; positive
Test System: AMES SALMONELLA TYPHIMURIUM, Strain/Indicator: TA100, Metabolic Activation: RAT, LIVER, MICROSOMES, PHENOBARBITAL, Method: STANDARD PLATE
  mutagenic call: active; positive
[9]
  mutagenic call: inactive; negative
Test System: AMES SALMONELLA TYPHIMURIUM, Strain/Indicator: TA100, Metabolic Activation: RAT, LIVER, S-9, PHENOBARBITAL, Method: STANDARD PLATE
  mutagenic call: active; positive
Test System: AMES SALMONELLA TYPHIMURIUM, Strain/Indicator: TA100, Metabolic Activation: RAT, LIVER, S-9, Method: STANDARD PLATE
  mutagenic call: inactive; negative
[10]
  mutagenic call: active; positive
[11]
  mutagenic call: inactive; negative
[12]
  mutagenic call: active; positive
[13]
  mutagenic call: inactive; negative
[14]
  mutagenic call: inactive; negative
[15]
  mutagenic call: inactive; negative
Test System: CHINESE HAMSTER V-79, Strain/Indicator: V-79/6-THIOGUANINE, Metabolic Activation: RAT, LIVER, MICROSOMES, PHENOBARBITAL
  mutagenic call: inactive; negative
Test System: UDS RODENT HEPATOCYTES, Strain/Indicator: THY INCORP (NON-S-PHASE), Metabolic Activation: RAT, LIVER, HEPATOCYTES, PHENOBARBITAL, Method: LIQUID SCINTILLATION COUNTING
  mutagenic call: inactive; negative
Test System: UDS RODENT HEPATOCYTES, Strain/Indicator: THY INCORP (NON-S-PHASE), Metabolic Activation: RAT, LIVER, HEPATOCYTES, Method: LIQUID SCINTILLATION COUNTING
  mutagenic call: inactive; negative

## C1=CC2OC2c2ccc3c4c5c(cccc5cc3c21)C=C4 (configuration not stated)
[1]
  mutagenic call: inactive; negative
Test System: AMES SALMONELLA TYPHIMURIUM, Strain/Indicator: TA98, Metabolic Activation: RAT, LIVER, S-9, AROCLOR 1254 (0.4, 0.8, 1.15 OR 1.5 MG/PLATE), Method: STANDARD PLATE
  mutagenic call: active; positive
[2]
  mutagenic call: active; positive

## CC1CNC(=O)N1c1ncc([N+](=O)[O-])s1 (configuration not stated)
[1]
  mutagenic call: active; positive
[3]
  mutagenic call: active; positive
